PubChem BioAssay AID1845210 (Molecular Pharmacology Branch, DTP, NCI, 2023)

System: NCI-H226 complex tumor spheroids, viability
Test: Anticancer human tumor NCI-H226 cell line growth inhibition;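 also: spheroids exposed to compound for 7 days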;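 as to viability, T/C: 100% = DMSO vehicle control viability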
Conditions: for IC50: curve of first compound; for viability, T/C: stronger effect = lower value
Method in brief: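 Complex tumor spheroids combined malignant cells with endothelial cells and mesenchymal stem cells. DNA-damaging drugs and DNA repair inhibitors were tested alone and in combination, at half-log dilutions down from clinical Cmax (top 10 microM if Cmax unknown), 0.25% DMSO final.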

CC1COCCN1c1cc(-c2ccnn2C)c2ccnc(-c3ccn[nH]3)c2n1 (stereo not given) + Cn1nnc2c(C(N)=O)ncn2c1=O
IC50 (second compound 1 µM): 1890 nM
IC50 (second compound 3.16 µM): 1750 nM
IC50 (second compound 10 µM): 2010 nM
IC50 (second compound 31.6 µM): 2020 nM
IC50 (second compound 100 µM): 2410 nM
viability, T/C (second compound 1 µM, first compound 0.0316 µM): 88.1%
viability, T/C (second compound 1 µM, first compound 0.1 µM): 86.8%
viability, T/C (second compound 1 µM, first compound 0.316 µM): 79.3%
viability, T/C (second compound 1 µM, first compound 1 µM): 59.6%
viability, T/C (second compound 1 µM, first compound 3.16 µM): 42.4%
viability, T/C (second compound 1 µM, first compound 10 µM): 35.9%
viability, T/C (second compound 3.16 µM, first compound 0.0316 µM): 98.8%
viability, T/C (second compound 3.16 µM, first compound 0.1 µM): 86.1%
viability, T/C (second compound 3.16 µM, first compound 0.316 µM): 78.4%
viability, T/C (second compound 3.16 µM, first compound 1 µM): 50.8%
viability, T/C (second compound 3.16 µM, first compound 3.16 µM): 47.8%
viability, T/C (second compound 3.16 µM, first compound 10 µM): 34.9%
viability, T/C (second compound 10 µM, first compound 0.0316 µM): 105%
viability, T/C (second compound 10 µM, first compound 0.1 µM): 88.6%
viability, T/C (second compound 10 µM, first compound 0.316 µM): 73%
viability, T/C (second compound 10 µM, first compound 1 µM): 59.3%
viability, T/C (second compound 10 µM, first compound 3.16 µM): 43.1%
viability, T/C (second compound 10 µM, first compound 10 µM): 36.1%
viability, T/C (second compound 31.6 µM, first compound 0.0316 µM): 90.2%
viability, T/C (second compound 31.6 µM, first compound 0.1 µM): 91.5%
viability, T/C (second compound 31.6 µM, first compound 0.316 µM): 74.7%
viability, T/C (second compound 31.6 µM, first compound 1 µM): 58.3%
viability, T/C (second compound 31.6 µM, first compound 3.16 µM): 46.1%
viability, T/C (second compound 31.6 µM, first compound 10 µM): 37.9%
viability, T/C (second compound 100 µM, first compound 0.0316 µM): 116%
viability, T/C (second compound 100 µM, first compound 0.1 µM): 107%
viability, T/C (second compound 100 µM, first compound 0.316 µM): 92.9%
viability, T/C (second compound 100 µM, first compound 1 µM): 61.5%
viability, T/C (second compound 100 µM, first compound 3.16 µM): 46.2%
viability, T/C (second compound 100 µM, first compound 10 µM): 42.5%

CC1COCCN1c1cc(-c2ccnn2C)c2ccnc(-c3ccn[nH]3)c2n1 (stereo not given) + COc1cc2c(cc1O)CCNC21CSC2c3c(OC(C)=O)c(C)c4c(c3C(COC1=O)N1C(O)C3Cc5cc(C)c(OC)c(O)c5C(C21)N3C)OCO4
IC50 (second compound 30 pM): 3120 nM
IC50 (second compound 94.9 pM): > 10000 nM
IC50 (second compound 0.0003 µM): > 10000 nM
IC50 (second compound 0.000949 µM): 3650 nM
IC50 (second compound 0.003 µM): < 31.6 nM
viability, T/C (second compound 30 pM, first compound 0.0316 µM): 120%
viability, T/C (second compound 30 pM, first compound 0.1 µM): 108%
viability, T/C (second compound 30 pM, first compound 0.316 µM): 89.1%
viability, T/C (second compound 30 pM, first compound 1 µM): 61.3%
viability, T/C (second compound 30 pM, first compound 3.16 µM): 50.9%
viability, T/C (second compound 30 pM, first compound 10 µM): 45.2%
viability, T/C (second compound 94.9 pM, first compound 0.0316 µM): 106%
viability, T/C (second compound 94.9 pM, first compound 0.1 µM): 112%
viability, T/C (second compound 94.9 pM, first compound 0.316 µM): 80%
viability, T/C (second compound 94.9 pM, first compound 1 µM): 62.1%
viability, T/C (second compound 94.9 pM, first compound 3.16 µM): 53.5%
viability, T/C (second compound 94.9 pM, first compound 10 µM): 50.4%
viability, T/C (second compound 0.0003 µM, first compound 0.0316 µM): 109%
viability, T/C (second compound 0.0003 µM, first compound 0.1 µM): 108%
viability, T/C (second compound 0.0003 µM, first compound 0.316 µM): 98.9%
viability, T/C (second compound 0.0003 µM, first compound 1 µM): 71.3%
viability, T/C (second compound 0.0003 µM, first compound 3.16 µM): 57.8%
viability, T/C (second compound 0.0003 µM, first compound 10 µM): 56.7%
viability, T/C (second compound 0.000949 µM, first compound 0.0316 µM): 126%
viability, T/C (second compound 0.000949 µM, first compound 0.1 µM): 102%
viability, T/C (second compound 0.000949 µM, first compound 0.316 µM): 90.6%
viability, T/C (second compound 0.000949 µM, first compound 1 µM): 58.8%
viability, T/C (second compound 0.000949 µM, first compound 3.16 µM): 53%
viability, T/C (second compound 0.000949 µM, first compound 10 µM): 43.5%
viability, T/C (second compound 0.003 µM, first compound 0.0316 µM): 1.51%
viability, T/C (second compound 0.003 µM, first compound 0.1 µM): 1.41%
viability, T/C (second compound 0.003 µM, first compound 0.316 µM): 1.32%
viability, T/C (second compound 0.003 µM, first compound 1 µM): 0.82%
viability, T/C (second compound 0.003 µM, first compound 3.16 µM): 0.74%
viability, T/C (second compound 0.003 µM, first compound 10 µM): 0.49%
